Read-outs that look alike come from different tables or passages of the source.
Tests used:
[1] = molecular target: T1, CAXIV (Homo sapiens, UniProt Q9ULX7); test: Fluorescent thermal shift assay (FTSA), CAXIV; type: binding; conditions: for Intrinsic Gibbs energy change (ΔGint), CAXIV: 37 °C, calculated (Equation 5); for Kd: FTSA, pH 7.0, 37 °C, read-out: Observed Dissociation Constant (Kd_obs), CAXIV;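 on all read-outs here: recombinant human CA XIV from E. coli, ANS-based thermal shift: Kd_obs fitted from melting temperature versus ligand concentration, ΔGint from Kd_obs corrected for deprotonated sulfonamide and Zn-water fractions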
T1 construct: made in house; host or cells: E. coli
Procedure: (§1) Human CA isozymes were expressed in E. coli (CAI, II, III, IV, VA, VB, VII, XII, XIII, XIV) or mammalian cells (CAVI and CAIX), chromatographically purified following the published protocols [47], and stored at −80 °C. The protein concentration was determined by UV absorption at 280 nm using Beer–Lambert law.
(§2) The QIAGEN Rotor-Gene Q was used to carry out the experiments, with a blue channel used for excitation (365 nm) and detection (460 nm). FTSA in this case relies on an extrinsic probe, 8-anilino-1-naphthalenesulfonate (ANS), to detect the fluorescence increase during protein denaturation, from which protein melting temperature (Tm) can be determined. […] The observed affinity of ligands for CAs was determined by plotting the Tm as a function of ligand concentration and then fitting a curve as described previously [48]. […] Samples were heated from 25 °C to 99 °C at the speed of 1 °C/min.
(§3) The intrinsic thermodynamic parameters were calculated as described in [40]. The intrinsic reaction of inhibitor binding to CA is shown in Equation (1). […] It is known that CA proteins bind sulfonamides only when water molecules are coordinated to the Zn(II) ion, and sulfonamides only bind to CA proteins when their amino group is deprotonated (confirmed by neutron crystallography [53, 54, 55]):(1) CA Zn^II−H2O+RSO2NH^−⇄ CA Zn^II−NH SO2R+H2O
(§4) When calculating Kd_int values, these protein and ligand fractions from Equation (1) have to be accounted for (Equations (2) and (3)). The intrinsic dissociation constant is calculated by multiplying Kd_obs value by the corresponding fractions of protein and ligand (Equation (4)). (2) fRSO2NH^−=10^pH−pKa_RSO2NH2/1+10^pH−pKa_RSO2NH2 (3) fCAZnH2O=1−10^pH−pKa_CAZnH2O/1+10^pH−pKa_CAZnH2O (4) Kd_int=Kd_obs×fRSO2NH^−×fCAZnH2O (5) ΔGint0=RTlnKd_int
(§5) The intrinsic standard Gibbs energy changes upon binding were calculated using Equation (5). Here, R—universal ideal gas constant (8.3144 J/mol·K), T—absolute temperature (310.15 K).

[2] = molecular target: T2, CAII (Homo sapiens, UniProt P00918); test: biochemical; type: binding; conditions: for Intrinsic Gibbs energy change (ΔGint), CAII: 37 °C, calculated (Equation 5); for Kd: FTSA, pH 7.0, 37 °C, read-out: Observed Dissociation Constant (Kd_obs), CAII
T2 construct: made in house; host or cells: E. coli
Procedure: as §1, §2
(§6) The intrinsic thermodynamic parameters were calculated as described in [40]. The intrinsic reaction of inhibitor binding to CA is shown in Equation (1).
as §4, §5

[3] = molecular target: T3, CAVA (Homo sapiens, UniProt P35218); test: Fluorescent thermal shift assay (FTSA), CAVA; type: binding; conditions: FTSA, pH 7.0, 37 °C; read-out: Observed Dissociation Constant (Kd_obs), CAVA
T3 construct: made in house; host or cells: E. coli

[4] = molecular target: T4, CAIV (Homo sapiens, UniProt P22748); test: Fluorescent thermal shift assay (FTSA), CAIV; type: binding; conditions: for Intrinsic Gibbs energy change (ΔGint), CAIV: 37 °C, calculated (Equation 5); for Kd: FTSA, pH 7.0, 37 °C, read-out: Observed Dissociation Constant (Kd_obs), CAIV;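 on all read-outs here: recombinant human enzyme, thermal denaturation followed by ANS fluorescence, melting temperature versus ligand concentration fitted for Kd_obs, intrinsic value corrected for deprotonated sulfonamide and Zn-bound water fractions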
T4 construct: made in house; host or cells: E. coli
Procedure: as §1, §2, §3, §4, §5

[5] = molecular target: T5, CAVI (Homo sapiens, UniProt P23280); test: Fluorescent thermal shift assay (FTSA), CAVI; type: binding; conditions: for Intrinsic Gibbs energy change (ΔGint), CAVI: 37 °C, calculated (Equation 5); for Kd: FTSA, pH 7.0, 37 °C, read-out: Observed Dissociation Constant (Kd_obs), CAVI;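 on all read-outs here: human CAVI expressed in mammalian cells, ANS fluorescence tracked during thermal unfolding, melting temperature fitted against ligand concentration, intrinsic values corrected for deprotonated sulfonamide and Zn-bound water fractions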
T5 construct: made in house

[6] = Determination of compound sulfonamide group pKa (UV-Vis spectra at different pH); type: physicochemical; conditions: universal buffer; spectrophotometric, 37 °C; read-out: Sulfonamide pKa
Procedure: To calculate the intrinsic thermodynamic parameters of compound binding to CA isozymes, the pKa values of the sulfonamide group and the water molecule bound to the Zn(II) ion at the active site of CA proteins had to be determined. The pKa values for CA isozyme-bound water molecules were taken from, CAI—8.1; CAII—6.9; CAIII—6.5; CAIV—6.6; CAVA—6.7; CAVB—7.0; CAVI—6.0; CAVII—6.8; CAIX—6.6; CAXII—6.8; CAXIII—8.0; CAXIV—6.1. […] The pKa values were calculated as described previously in [28, 52] by normalizing the absorbance, plotting it as a function of pH, then fitting to the Henderson–Hasselbalch equation using the least square method (Figure S105).
Since the pKa values were only able to be measured for compound group 26–36, due to universal buffer pH limitations, intrinsic thermodynamic parameters were not calculated for compounds 2(a,b)–25(a,b), only for compounds 26–36 using experimentally obtained pKa values when possible and using the average pKa value mentioned above for compounds not measured.

[7] = molecular target: T6, CAXIII (Homo sapiens, UniProt Q8N1Q1); conditions: 37 °C; calculated (Equation 5);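 further: recombinant human CAXIII melting temperature tracked by ANS fluorescence in thermal shift assay, Tm fitted against ligand concentration, intrinsic value corrects Kd for deprotonated sulfonamide and Zn-bound water fractions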
Procedure: as §1, §2, §6, §4, §5

[8] = molecular target: T7, CAI (Homo sapiens, UniProt P00915); test: biochemical; type: binding; conditions: for Intrinsic Gibbs energy change (ΔGint), CAI: 37 °C, calculated (Equation 5); for Kd: FTSA, pH 7.0, 37 °C, read-out: Observed Dissociation Constant (Kd_obs), CAI
T7 construct: made in house; host or cells: E. coli

[9] = molecular target: T8, CAIII (Homo sapiens, UniProt P07451); test: Fluorescent thermal shift assay (FTSA), CAIII; type: binding; conditions: FTSA, pH 7.0, 37 °C; read-out: Observed Dissociation Constant (Kd_obs), CAIII
T8 construct: made in house; host or cells: E. coli
Procedure: as §1, §2, §3, §4, §5

[10] = molecular target: T9, CAXII (Homo sapiens, UniProt O43570); test: biochemical; type: binding; conditions: for Intrinsic Gibbs energy change (ΔGint), CAXII: 37 °C, calculated (Equation 5); for Kd: FTSA, pH 7.0, 37 °C, read-out: Observed Dissociation Constant (Kd_obs), CAXII
T9 construct: made in house; host or cells: E. coli
Procedure: as §1, §2, §6, §4, §5

[11] = molecular target: T10, CAVB (Homo sapiens, UniProt Q9Y2D0); test: Isothermal titration calorimetry (ITC), CAVB; type: binding; conditions: pH 7.0, 37 °C
T10 construct: made in house; host or cells: E. coli

[12] = molecular target: T10, CAVB; test: Fluorescent thermal shift assay (FTSA), CAVB; type: binding; conditions: for Intrinsic Gibbs energy change (ΔGint), CAVB: 37 °C, calculated (Equation 5); for Kd: FTSA, pH 7.0, 37 °C, read-out: Observed Dissociation Constant (Kd_obs), CAVB
Procedure: as §1, §2, §3, §4, §5

[13] = molecular target: T11, CAIX (Homo sapiens, UniProt Q16790); test: biochemical; type: binding; conditions: for Intrinsic Gibbs energy change (ΔGint), CAIX: 37 °C, calculated (Equation 5); for Kd: FTSA, pH 7.0, 37 °C, read-out: Observed Dissociation Constant (Kd_obs), CAIX
T11 construct: made in house
Procedure: as §1, §2, §6, §4, §5

[14] = molecular target: T12, CAVII (Homo sapiens, UniProt P43166); test: Fluorescent thermal shift assay (FTSA), CAVII; type: binding; conditions: for Intrinsic Gibbs energy change (ΔGint), CAVII: 37 °C, calculated (Equation 5); for Kd: FTSA, pH 7.0, 37 °C, read-out: Observed Dissociation Constant (Kd_obs), CAVII
T12 construct: made in house; host or cells: E. coli

[15] = molecular target: T6, CAXIII; test: biochemical; conditions: Observed Dissociation Constant (Kd_obs), FTSA, pH 7.0, 37 °C
Procedure: as §1, §2, §6, §4, §5

[16] = molecular target: T11, CAIX; conditions: FTSA, pH 7.0, 37 °C; taken from previous publication; read-out: Observed Dissociation Constant (Kd_obs), CAIX; cited from earlier work
[17] = molecular target: T2, CAII; conditions: FTSA, pH 7.0, 37 °C; taken from previous publication; read-out: Observed Dissociation Constant (Kd_obs), CAII; cited from earlier work
[18] = molecular target: T7, CAI; conditions: FTSA, pH 7.0, 37 °C; taken from previous publication; read-out: Observed Dissociation Constant (Kd_obs), CAI; cited from earlier work
[19] = molecular target: T9, CAXII; conditions: FTSA, pH 7.0, 37 °C; taken from previous publication; read-out: Observed Dissociation Constant (Kd_obs), CAXII; cited from earlier work
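Wherever Intrinsic Gibbs energy change (ΔGint), CAII is given: recombinant human CAII, thermal shift with ANS dye fluorescence, Kd_obs from fitting melting temperature versus ligand concentration, intrinsic values corrected for deprotonated sulfonamide and Zn-bound water fractions.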

T12 sequence (P43166 whole entry): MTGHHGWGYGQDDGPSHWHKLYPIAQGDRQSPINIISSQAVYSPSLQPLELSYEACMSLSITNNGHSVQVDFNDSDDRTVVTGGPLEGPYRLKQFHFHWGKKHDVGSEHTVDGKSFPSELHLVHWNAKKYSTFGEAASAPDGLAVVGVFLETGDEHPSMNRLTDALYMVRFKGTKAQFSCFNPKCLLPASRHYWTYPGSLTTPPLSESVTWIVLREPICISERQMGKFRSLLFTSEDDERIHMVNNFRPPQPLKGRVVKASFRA
T10 sequence (Q9Y2D0 34-317): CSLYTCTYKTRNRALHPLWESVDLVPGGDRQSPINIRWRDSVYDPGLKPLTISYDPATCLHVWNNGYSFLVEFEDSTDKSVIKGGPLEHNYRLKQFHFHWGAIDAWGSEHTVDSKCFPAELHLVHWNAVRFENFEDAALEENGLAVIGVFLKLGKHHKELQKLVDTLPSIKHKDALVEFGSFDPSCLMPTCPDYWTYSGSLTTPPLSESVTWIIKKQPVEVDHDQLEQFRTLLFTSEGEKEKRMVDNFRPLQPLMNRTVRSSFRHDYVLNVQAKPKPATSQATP
T9 sequence (O43570 25-354): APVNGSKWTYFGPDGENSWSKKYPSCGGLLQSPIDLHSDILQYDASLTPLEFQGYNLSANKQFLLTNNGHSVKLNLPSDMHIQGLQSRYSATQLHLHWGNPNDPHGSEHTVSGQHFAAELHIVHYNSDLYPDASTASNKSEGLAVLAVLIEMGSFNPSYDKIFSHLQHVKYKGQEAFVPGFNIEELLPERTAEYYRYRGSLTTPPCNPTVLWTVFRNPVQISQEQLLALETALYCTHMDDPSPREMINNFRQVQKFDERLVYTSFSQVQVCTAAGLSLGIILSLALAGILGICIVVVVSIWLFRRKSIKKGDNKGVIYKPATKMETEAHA
T5 sequence (P23280 21-290 limits assumed): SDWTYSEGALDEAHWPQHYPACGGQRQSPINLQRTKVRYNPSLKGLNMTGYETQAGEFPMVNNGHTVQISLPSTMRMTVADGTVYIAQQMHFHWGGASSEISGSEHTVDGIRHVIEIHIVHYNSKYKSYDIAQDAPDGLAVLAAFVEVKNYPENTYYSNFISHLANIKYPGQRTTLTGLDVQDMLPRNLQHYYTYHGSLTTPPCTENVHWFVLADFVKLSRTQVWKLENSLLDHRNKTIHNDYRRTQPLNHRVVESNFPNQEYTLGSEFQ
T1 sequence (Q9ULX7 16-337): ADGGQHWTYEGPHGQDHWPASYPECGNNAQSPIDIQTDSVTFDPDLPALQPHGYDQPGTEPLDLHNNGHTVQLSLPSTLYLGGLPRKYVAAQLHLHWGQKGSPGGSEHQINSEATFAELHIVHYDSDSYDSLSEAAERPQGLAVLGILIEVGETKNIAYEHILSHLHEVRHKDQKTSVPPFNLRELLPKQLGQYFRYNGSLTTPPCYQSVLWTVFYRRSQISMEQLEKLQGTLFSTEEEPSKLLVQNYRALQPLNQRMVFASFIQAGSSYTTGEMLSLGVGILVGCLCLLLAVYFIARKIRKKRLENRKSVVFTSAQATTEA
T6 sequence (Q8N1Q1 whole entry): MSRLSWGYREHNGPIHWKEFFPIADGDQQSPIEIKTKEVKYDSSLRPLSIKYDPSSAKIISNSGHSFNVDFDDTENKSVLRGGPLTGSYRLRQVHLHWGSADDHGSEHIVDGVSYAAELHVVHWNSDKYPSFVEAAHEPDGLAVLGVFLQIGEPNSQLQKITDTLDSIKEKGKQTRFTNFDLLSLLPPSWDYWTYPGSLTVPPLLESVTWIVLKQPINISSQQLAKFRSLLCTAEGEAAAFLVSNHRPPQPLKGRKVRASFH
T4 sequence (P22748 19-312): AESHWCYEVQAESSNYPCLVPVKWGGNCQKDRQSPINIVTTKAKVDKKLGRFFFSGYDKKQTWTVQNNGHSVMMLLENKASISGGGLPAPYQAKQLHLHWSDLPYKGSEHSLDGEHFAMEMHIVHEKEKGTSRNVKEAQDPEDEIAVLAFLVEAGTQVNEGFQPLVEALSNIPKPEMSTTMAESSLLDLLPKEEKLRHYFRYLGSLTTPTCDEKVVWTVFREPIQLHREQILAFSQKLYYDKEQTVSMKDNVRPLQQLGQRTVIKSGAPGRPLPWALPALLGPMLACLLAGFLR
T7 sequence (P00915 whole entry): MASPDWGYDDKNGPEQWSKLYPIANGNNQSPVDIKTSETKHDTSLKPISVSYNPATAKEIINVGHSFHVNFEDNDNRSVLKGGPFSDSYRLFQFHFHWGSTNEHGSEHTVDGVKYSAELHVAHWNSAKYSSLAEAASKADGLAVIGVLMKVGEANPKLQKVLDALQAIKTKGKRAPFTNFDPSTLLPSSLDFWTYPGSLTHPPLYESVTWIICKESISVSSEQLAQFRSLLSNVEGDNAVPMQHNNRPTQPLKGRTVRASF
T8 sequence (P07451 whole entry): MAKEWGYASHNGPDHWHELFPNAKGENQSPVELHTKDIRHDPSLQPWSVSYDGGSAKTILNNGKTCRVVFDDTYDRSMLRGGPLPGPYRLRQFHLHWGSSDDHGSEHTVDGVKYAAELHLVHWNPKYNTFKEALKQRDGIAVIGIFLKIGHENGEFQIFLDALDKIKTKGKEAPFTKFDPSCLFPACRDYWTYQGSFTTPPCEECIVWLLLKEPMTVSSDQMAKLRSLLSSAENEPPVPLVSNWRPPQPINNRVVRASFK
T3 sequence (P35218 39-305): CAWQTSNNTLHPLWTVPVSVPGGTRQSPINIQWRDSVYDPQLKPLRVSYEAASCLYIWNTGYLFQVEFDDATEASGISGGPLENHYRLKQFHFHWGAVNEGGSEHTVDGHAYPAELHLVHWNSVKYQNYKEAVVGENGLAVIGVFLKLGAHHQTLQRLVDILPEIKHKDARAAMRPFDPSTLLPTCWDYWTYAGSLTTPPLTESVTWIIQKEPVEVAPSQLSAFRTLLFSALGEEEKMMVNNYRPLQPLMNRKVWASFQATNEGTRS

With `CCOC(=O)c1sc(N(CCC(=O)OC)c2ccc(S(N)(=O)=O)cc2)nc1C` [Compound 32, Ethyl 2-((3-Methoxy-3-oxopropyl)(4-sulfamoylphenyl)amino)-4-methylthiazole-5-carboxylate] the melting point was 140 to 141 °C, the “Intrinsic Gibbs energy change (ΔGint), CAXIV” value [1] was -13.8 kcal/mol and the Kd [1] was 770 nM. For the same compound, the “Intrinsic Gibbs energy change (ΔGint), CAII” value [2] was -14.6 kcal/mol, the Kd [2] was 53 nM and the Kd [3] was ≥ 200000 nM. The “Intrinsic Gibbs energy change (ΔGint), CAIV” value [4] was -12.7 kcal/mol, the Kd [4] was 2000 nM and the “Intrinsic Gibbs energy change (ΔGint), CAVI” value [5] was -12.4 kcal/mol. For the same compound, the Kd [5] was 10000 nM, the pKa [6] was 9.7 and the “Intrinsic Gibbs energy change (ΔGint), CAXIII” value [7] was -13.1 kcal/mol. For the same compound, the “Intrinsic Gibbs energy change (ΔGint), CAI” value [8] was -12.5 kcal/mol, the Kd [8] was 830 nM and the Kd [9] was ≥ 200000 nM. For the same compound, the “Intrinsic Gibbs energy change (ΔGint), CAXII” value [10] was -11.7 kcal/mol, the Kd [10] was 7700 nM and the “ΔHobs, CAVB” value ([11]; 50 mM sodium phosphate buffer, 100 mM NaCl) was -9.6 kcal/mol. The Kd ([11]; read-out: Observed Dissociation Constant (Kd_obs), CAVB, ITC data in brackets) was 41 nM, the “Intrinsic Gibbs energy change (ΔGint), CAVB” value [12] was -14.9 kcal/mol and the Kd [12] was 30 nM. For the same compound, the “Intrinsic Gibbs energy change (ΔGint), CAIX” value [13] was -14.1 kcal/mol, the Kd [13] was 190 nM and the “Intrinsic Gibbs energy change (ΔGint), CAVII” value [14] was -14.2 kcal/mol. It also gave a Kd [14] of 130 nM and a Kd [15] of 330 nM.
In the case of `Cc1cc(C)n(C(=O)C2CC(=O)N(c3ccc(S(N)(=O)=O)cc3)C2)n1` (stereo not drawn) [Compound 21], the Kd [16] is listed as 220 nM, the Kd [17] is listed as 66 nM and the Kd [18] is listed as 250 nM. For the same compound, the Kd [19] was 1400 nM.
With `Cc1csc(N(CCC(=O)NN)c2ccc(S(N)(=O)=O)cc2)n1` [Compound 29, 4-((3-Hydrazineyl-3-oxopropyl)(4-methylthiazol-2-yl)amino)benzenesulfonamide] the melting point was 167 to 168 °C, the “Intrinsic Gibbs energy change (ΔGint), CAXIV” value [1] was -15.8 kcal/mol and the Kd [1] was 130 nM. The “Intrinsic Gibbs energy change (ΔGint), CAII” value [2] was -14.3 kcal/mol, the Kd [2] was 380 nM and the Kd [3] was ≥ 200000 nM. For the same compound, the “Intrinsic Gibbs energy change (ΔGint), CAIV” value [4] was -13.7 kcal/mol, the Kd [4] was 1500 nM and the “Intrinsic Gibbs energy change (ΔGint), CAVI” value [5] was -12.8 kcal/mol. For the same compound, the Kd [5] was 20000 nM, the pKa [6] was 10.3 and the “Intrinsic Gibbs energy change (ΔGint), CAXIII” value [7] was -12.9 kcal/mol. The “Intrinsic Gibbs energy change (ΔGint), CAI” value [8] was -14.4 kcal/mol, the Kd [8] was 150 nM and the Kd [9] was ≥ 200000 nM. For the same compound, the “Intrinsic Gibbs energy change (ΔGint), CAXII” value [10] was -13.9 kcal/mol, the Kd [10] was 830 nM and the “Intrinsic Gibbs energy change (ΔGint), CAVB” value [12] was -15.2 kcal/mol. For the same compound, the Kd [12] was 77 nM, the “Intrinsic Gibbs energy change (ΔGint), CAIX” value [13] was -15.5 kcal/mol and the Kd [13] was 80 nM. For the same compound, the “Intrinsic Gibbs energy change (ΔGint), CAVII” value [14] was -14 kcal/mol, the Kd [14] was 670 nM and the Kd [15] was 1700 nM.

From paper PMC9033141, “Beta and Gamma Amino Acid-Substituted Benzenesulfonamides as Inhibitors of Human Carbonic Anhydrases” (Pharmaceuticals, 2022)
